Data from patent US10816541B2, “Method for predicting side effect of whitening ingredient” (AMOREPACIFIC CORPORATION, priority 2015, dated 2020).
“Also recorded” adds a separate entry of the source. Read-outs that look alike come from different tables or passages of the source.

Experiments:
[1] = Cytotoxic concentration for HEMn-MP cells depending on treatment time (CCK-8, Test Example 1-1); format: cell-based, human; settings: human, HEMn-MP cells (human epidermal melanocytes); for CC50 at 1 day: Day 1; for CC50 at 7 days: Day 7
Experimental: (§1) The HEMn-MP (human epidermal melanocytes, neonatal, moderately pigmented donor, Cat. No. C-102-5C) cells were purchased from Life Technologies (USA). As a cell culture medium, medium 254 (Cat. No. M-254-500) supplemented with HMGS (Cat. No. S-002-5) was used. The cells were cultured according to the manufacturer's manual and cells during passages 3-8 were used. To summarize, the cells were cultured on a 175 T flask in a 5% CO2 incubator at 37° C. During subculturing, the cells were separated using 0.05% trypsin-EDTA, collected by centrifugation (1200 rpm, 5 minutes) and cultured after seeding to 5×10^3 cells/cm^2. For cytotoxicity test, the cells were seeded onto a 96-well plate with 2×10^4 cells/well, cultured for a day and treated with each substance at 200 μL/well. Then, cytotoxicity was measured after a predetermined time.
(§2) Cytotoxicity was measured with Cell Counting Kit-8 (CCK-8) manufactured by Dojindo Molecular Technologies (USA). After removing the medium from the 96-well plate, 200 μL of 10% CCK-8 in the same medium was added to each well. After incubation at 37° C. for about 2 hours, absorbance of 100 μL of the medium was measured at 450 nm using an ELISA reader. As the cells […], the color of CCK-8 shifts to longer wavelength from colorless to orange color.
(§3) Cell survivability was calculated according to Equation 1. Cell survivability (%)={(Asample−Ab)/(Ac−Ab)}×100 [Equation 1]
(§4) In order to determine the cytotoxic concentration of the whitening ingredients for HEMn-MP (human epidermal melanocytes, neonatal, moderately pigmented donor, Cat. No. C-102-5C) cells, cell survivability (% cell survival rate) was measured as compared to a control group (0.5% DMSO) on days 1 and 7 after treatment with each whitening ingredient at the concentration described in Table 1 (FIG. 2). Based on the measurement result, CC20 and CC50 were calculated for the whitening ingredients and treatment time. Then, the ratio of the cytotoxic concentration on day 7 as compared to day 1 was calculated (Table 2).

HEMn-MP cells [2] = assay: as above; format: cell-based, human
Experimental: as §1, §2, §3, §4

[3] = Cytotoxic concentration for A375 cells depending on treatment time (CCK-8, Test Example 1-2); format: cell-based, human; settings: human, A375 cells (melanoma cell line), A375 cells; for CC50 at 24 hours: Day 1 (24 hours); for CC50 at 3 days: Day 3
Experimental: (§5) The A375 (human melanoma cell line) cells were purchased from the ATCC (Cat. No. CRL-1619, USA). As a cell culture medium, DMEM (Cat. No. 12-604, Lonza, USA) supplemented with 10% FBS (Cat. No. 16000-044, Gibco, USA) was used. Subculturing and cytotoxicity test were conducted in the same manner as for the HEM cells.
as §2, §3
(§6) The cytotoxicity of the whitening ingredients for A375 (human melanoma cell line, Cat. No. CRL-1619) cells with different treatment time was investigated. The toxicity was measured for 3 different sample treatment conditions. The cytotoxicity was measured after treating with the whitening ingredients for 24 hours, after treating with the samples for 24 hours and 48 hours later after exchanging with fresh media, and after treating with the samples for 72 hours without exchange of media. The result is shown as graphs (FIG. 3). Based on the measurement result, CC20 and CC50 were calculated for the whitening ingredients and treatment time. Then, the ratio of the cytotoxic concentration on day 3 as compared to day 1 was calculated (Table 3).

A375 cells = assay: as above; format: cell-based, human; settings: for Change in cytotoxicity after removal of the samples: A375 cells treated for a day, then cultured further for 2 days after removing the samples; for CC20 / CC50: A375 cells
Experimental: as §5, §2, §3, §6

HEMn-MP cells [4] = assay: Cytotoxicity for HEMn-MP cells with or without UVB radiation (Test Example 3); format: cell-based, human; settings: UVB 20 mJ/cm^3 irradiated vs unirradiated HEMn-MP cells, day 7
From the text: In order to investigate the effect of UVB radiation on the cytotoxicity of the whitening ingredients, cytotoxicity was compared for groups treated with the whitening ingredients without UVB radiation and groups irradiated with UVB at […] and then treated with the whitening ingredients (FIG. 5). That is to say, the response of the cells excited by UVB radiation to various whitening ingredients was investigated. After irradiating the cells with UVB and treating the cells with the samples, increase in cytotoxicity was determined and the ratio of cytotoxicity as compared to before the treatment was calculated (Table 7).
The ratio (%) of toxicity for the UVB-irradiated cells as compared to UVB-unirradiated cells was determined at representative concentrations (3 points) for each whitening ingredient. The ratio was corrected for the cytotoxicity of the control group (15-20%).

HEMn-MP cells [5] = assay: Inhibition of melanin production in HEMn-MP cells and correlation factor with cytotoxic concentration (Test Example 2); format: cell-based, human; settings: for CC20/EC50 / EC50 / CC50/EC50: HEMn-MP cells, day 7; for CC20/EC50: 20% cytotoxic concentration divided by EC50 of melanin production; for EC50: read-out: EC50 (50% inhibitory concentration of melanin synthesis); for CC50/EC50: 50% cytotoxic concentration divided by EC50 of melanin production
Experimental: The inhibitory effect of melanin production of the whitening ingredients for HEMn-MP cells was investigated. After treating the cells with the samples at concentrations shown in Table 4 and culturing for 7 days, the amount of melanin was measured as compared to a control group (0.5% DMSO) (FIG. 4). Also, EC50 (50% effective inhibitory concentration of melanin production) was calculated for the whitening ingredients (Table 5). Then, CC20 or CC50 was divided by EC50 to investigate the correlation factor (difference) between the cytotoxicity and the effective inhibitory concentration of melanin production (Table 6).
Table 6 compares the correlation factor between the cytotoxic concentration (CC50) and the inhibitory concentration of melanin synthesis (EC50) of the whitening ingredients on day 7. CC20/EC50 is the value obtained by dividing the 20% cytotoxic concentration by the 50% effective inhibitory concentration of melanin production and represents the correlation factor of the 20% cytotoxic concentration and the effective concentration. CC50/EC50 is the value obtained by dividing the 50% cytotoxic concentration by the 50% effective inhibitory concentration of melanin production and represents the correlation factor of the 50% cytotoxic concentration and the effective concentration.

[6] = consumers of commercialized skin whitening products, cited from earlier work

COc1cc(OC)c(C23CC4CC(CC(C4)C2)C3)cc1C(=O)NCc1ccc(O)cc1O [AP, 5-adamantan-1-yl-N-(2,4-dihydroxybenzyl)-2,4-dimethoxy-benzoic acid amide]
CC50 at 1 day [1]: 5.4 ± 0.3 µM | CC50 at 7 days [1]: 2.5 µM | CC20 (HEMn-MP cells [2]; Day 1): 3.3 ± 0.4 µM | CC20 (HEMn-MP cells [2]; Day 7): 1.3 ± 0.0 µM | CC50 at 24 hours [3]: 33.8 ± 0.7 µM | CC50 at 3 days [3]: 19.99 ± 0.06 µM | Change in cytotoxicity after removal of the samples (A375 cells): no more increase in cytotoxicity | CC20 (A375 cells; Day 1 (24 hours)): 25.5 ± 0.8 µM | CC20 (A375 cells; Day 3): 17.2 ± 0.09 µM | Ratio of cytotoxicity (HEMn-MP cells [4]; 0.39 μM): 2% | Ratio of cytotoxicity (HEMn-MP cells [4]; 0.78 μM): 14% | Ratio of cytotoxicity (HEMn-MP cells [4]; 1.56 μM): 0% | CC20/EC50 (HEMn-MP cells [5]): 11.8 Fold | EC50 (HEMn-MP cells [5]; Homo sapiens, 168 h): 0.11 ± 0.01 µM | Inhibitory effect of melanin production by melanocytes (HEMn-MP cells [5]; Test Example 2): excellent inhibitory effect of melanin production

Oc1ccc(OCc2ccccc2)cc1 [MB, 4-benzyloxy-phenol]
CC50 at 1 day [1]: 284 ± 28.2 µM | CC50 at 7 days [1]: 19 ± 0.7 µM | CC20 (HEMn-MP cells [2]; Day 1): 178.2 ± 21.6 µM | CC20 (HEMn-MP cells [2]; Day 7): 8.9 ± 0.4 µM | CC50 at 24 hours [3]: 295 ± 7.2 µM | CC50 at 3 days [3]: 7.19 ± 0.14 µM | Change in cytotoxicity after removal of the samples (A375 cells): continuously increased toxicity | CC20 (A375 cells; Day 1 (24 hours)): 119.8 ± 4.7 µM | CC20 (A375 cells; Day 3): 2.31 ± 0.07 µM | CC20/EC50 (HEMn-MP cells [5]): 1.3 Fold | CC50/EC50 (HEMn-MP cells [5]): 2.8 Fold | EC50 (HEMn-MP cells [5]; Homo sapiens, 168 h): 6.8 ± 2.5 µM | Clinical side effect reported by users [6]: leukoderma-like side effects

CCCCc1ccc(O)cc1O [RC, 4-butylresorcinol]
CC50 at 1 day [1]: 347 ± 12.7 µM | CC50 at 7 days [1]: 284 ± 20.4 µM | CC20 (HEMn-MP cells [2]; Day 1): 170.2 ± 15.9 µM | CC20 (HEMn-MP cells [2]; Day 7): 69.7 ± 6.1 µM | CC50 at 24 hours [3]: 508 ± 11.3 µM | CC50 at 3 days [3]: 122 ± 11 µM | Change in cytotoxicity after removal of the samples (A375 cells): no more increase in cytotoxicity | CC20 (A375 cells; Day 1 (24 hours)): 313.9 ± 10.6 µM | CC20 (A375 cells; Day 3): 52.73 ± 4.67 µM | Ratio of cytotoxicity (HEMn-MP cells [4]; 31.25 μM): 0% | Ratio of cytotoxicity (HEMn-MP cells [4]; 62.5 μM): 0% | Ratio of cytotoxicity (HEMn-MP cells [4]; 125 μM): 0% | CC20/EC50 (HEMn-MP cells [5]): >20 Fold | EC50 (HEMn-MP cells [5]; Homo sapiens, 168 h): 2.7 ± 0.6 µM | Clinical side effect reported by users ([6]; listed as rucinol): no clinical side effect has been reported; also recorded: no clinical problem has been reported

C[C@@H](O)CCc1ccc(O)cc1 [RD, rhododenol]
CC20 (HEMn-MP cells [2]; Day 1): 7100 ± 800 µM | CC50 (HEMn-MP cells [2]; Day 1): 10.8 ± 0.7 mM | CC20 (HEMn-MP cells [2]; Day 7): 1000 ± 0 µM | CC50 (HEMn-MP cells [2]; Day 7): 2.4 ± 0.1 mM | Change in cytotoxicity after removal of the samples (A375 cells): continuously increased toxicity | CC20 (A375 cells; Day 1 (24 hours)): 4200 ± 200 µM | CC50 (A375 cells; Day 1 (24 hours)): 8.4 ± 0.2 mM | CC20 (A375 cells; Day 3): 190 ± 10 µM | CC50 (A375 cells; Day 3): 0.5 ± 0.02 mM | Ratio of cytotoxicity (HEMn-MP cells [4]; 1.25 mM): 24% | Ratio of cytotoxicity (HEMn-MP cells [4]; 2.5 mM): 27% | Ratio of cytotoxicity (HEMn-MP cells [4]; 5 mM): 15% | CC20/EC50 (HEMn-MP cells [5]): 0.8 Fold | CC50/EC50 (HEMn-MP cells [5]): 2.1 Fold | EC50 (HEMn-MP cells [5]): 1130 ± 160 µM | Clinical side effect reported by users [6]: leukoderma-like side effects; also recorded: leukoderma-like symptoms

CC(=O)CCc1ccc(O)cc1 [RK, raspberry ketone]
CC50 at 1 day [1]: 10400 ± 200 µM | CC50 at 7 days [1]: 1400 ± 400 µM | CC20 (HEMn-MP cells [2]; Day 1): 6500 ± 200 µM | CC20 (HEMn-MP cells [2]; Day 7): 400 ± 100 µM | CC50 at 24 hours [3]: 10700 ± 100 µM | CC50 at 3 days [3]: 790 ± 40 µM | Change in cytotoxicity after removal of the samples (A375 cells): continuously increased toxicity | CC20 (A375 cells; Day 1 (24 hours)): 6700 ± 100 µM | CC20 (A375 cells; Day 3): 240 ± 20 µM | Ratio of cytotoxicity (HEMn-MP cells [4]; 0.625 mM): 19% | Ratio of cytotoxicity (HEMn-MP cells [4]; 1.25 mM): 8% | Ratio of cytotoxicity (HEMn-MP cells [4]; 2.5 mM): 26% | CC20/EC50 (HEMn-MP cells [5]): 0.4 Fold | CC50/EC50 (HEMn-MP cells [5]): 1.4 Fold | EC50 (HEMn-MP cells [5]; Homo sapiens, 168 h): 970 ± 90 µM | Clinical side effect reported by users [6]: leukoderma-like side effects
